Data: PMC10931745 (International Journal of Molecular Sciences, 2024)

What was measured:
MCF-7 = experiment: MTT cell viability assay; type: cell-based, human; conditions: 72 h
Experimental: (§1) The cell lines used were purchased from American Type Culture Collection (ATCC, Manassas, VA, USA). Human breast cancer cells MCF-7 and MDA-MB-231, human mammary epithelial cell line MCF-10A, and mouse BALB/3T3 embryonic fibroblasts were cultured as already described by some of us. The murine macrophage cell line RAW 264.7 was maintained in Dulbecco’s Modified Eagle’s Medium (DMEM) high glucose (4.5 g/L) supplemented with 10% Fetal Bovine Serum (FBS), 1% L-glutamine, and 100 units/mL of penicillin/streptomycin. The cell cultures were maintained at the temperature of 37 °C in a humidified atmosphere containing 5% CO2.
(§2) The 3-(4,5-dimethylthiazol-2-yl)-2,5-diphenyl-2H-tetrazolium bromide (MTT) assay (Sigma Aldrich (St. Louis, MO, USA)) was carried out to study the in vitro anticancer activities of the complexes, following the previously reported protocol. The cells were incubated for 72 h with different concentrations of the tested compounds (0.1, 1, 10, 25, 50, 100, and 500 µM) and the IC50 values were calculated from the percent (%) of control using the software GraphPad Prism 9 (GraphPad Software, La Jolla, CA, USA).

MDA-MB-231 = experiment: MTT cell viability assay; type: cell-based, human; conditions: 72 h
Experimental: as §1, §2

[1] = test system: human mammary epithelial cell line MCF-10A; experiment: MTT assay, toxicity towards normal cells; type: cell-based; conditions: 72 h
Experimental: as §1, §2

[2] = test system: NO production in LPS-stimulated RAW 264.7 macrophages; experiment: Griess assay, NO production; type: cell-based, murine; conditions: 25 µM, LPS 1 µg/mL, 24 h
Experimental: The Griess assay was performed using RAW 264.7 murine macrophages to study the anti-inflammatory activity in terms of NO production. RAW 264.7 cells were plated in the 48 multi-wells and, after 24 h, treated with the tested molecules (25 µM) and the lipopolysaccharide (LPS, Sigma Aldrich, Milan, Italy) at a final concentration of 1 µg/mL. LPS is able to induce inflammation by stimulating NO production in immune system cells such as macrophages. After 24 h, the cell medium Griess reagent (Sigma Aldrich, Milan, Italy) was mixed in with a ratio of 1:1. The Griess reagent allowed for the quantification of NO released by macrophages in the treatment medium. The mixture was left for 30 min under agitation and, subsequently, the absorbance at 540 nm was measured using a multiplate reader. The obtained absorbance allowed us to calculate the NO production % compared to the absorbance obtained for the positive control, in which the cells were treated with LPS.

[3] = test system: iNOS expression in RAW 264.7 macrophages; experiment: Immunofluorescence, iNOS expression; type: cell-based, murine; conditions: 25 µM, co-treated with LPS 1 µg/mL
Experimental: (§3) After a PBS wash, cells were fixed using cold methanol (15 min at −20 °C) and incubated overnight at 4 °C with the primary antibodies raised against NF-κB, iNOS, TNF-α, and COX-1 and 2 (Santa Cruz Biotechnology Inc., Santa Cruz, CA, USA) diluted in BSA 2%, as previously described. […] DAPI (Sigma Aldrich, Milan, Italy) 0.2 µg/mL was added for 10 min for nuclei counterstaining. A fluorescence microscope (Leica DM 6000) was used for visualizing images, and LAS-X software 3.5.7.23225 was used for acquisition and processing.

[4] = test system: COX-1 expression in RAW 264.7 macrophages; experiment: Immunofluorescence, COX-1 expression; type: cell-based, murine; conditions: 25 µM, co-treated with LPS 1 µg/mL
Experimental: as §3

[5] = test system: COX-2 expression in RAW 264.7 macrophages; experiment: Immunofluorescence, COX-2 expression; type: cell-based, murine; conditions: 25 µM, co-treated with LPS 1 µg/mL
Experimental: as §3

[6] = test system: NF-κB localization in RAW 264.7 macrophages; experiment: Immunofluorescence, NF-κB localization; type: cell-based, murine; conditions: 25 µM, co-treated with LPS 1 µg/mL
Experimental: as §3

[7] = ABTS radical scavenging assay; type: biochemical
Experimental: The radical scavenging properties of the complexes on a 2,20-azino-bis(3-ethylbenzothiazoline-6-sulfonate) radical cation (ABTS^+) were evaluated as previously described.
All the complexes were used at different concentrations (5, 10, 25, 50, and 100 µg/mL) and the ABTS radical scavenging activity, measured at 730 nm using a microplate reader, was expressed as inhibition percentages (%IABTS) compared tothe control, according to the following expression:(3) IABTS (%)=ABSCTRL−ABSsample/ABSCTRL∗100 where ABSCTRL and ABSsample are the absorbance at 730 nm in the control and in the presence of samples, respectively.
IC50 values were calculated from the %IABTS using GraphPad Prism 9 software (GraphPad Inc., San Diego, CA, USA). Trolox was employed as a positive control, while caffeine and theophylline were reference compounds.

[8] = DPPH radical scavenging assay; type: biochemical
Experimental: The radical scavenging properties of the complexes on the 1,1-diphenyl-2-picrylhydrazil (DPPH) radical were evaluated as previously described.
All the complexes were used at different concentrations (10, 25, 50, 100, and 200 µg/mL) and the DPPH radical scavenging activity, measured at 517 nm using a microplate reader, was expressed as inhibition percentages (%IDPPH) compared to the initial concentration of DPPH (control) according to the following expression:(2) IDPPH (%)=ABSCTRL−ABSsample/ABSCTRL∗100 where ABSCTRL and ABSsample are the absorbance at 517 nm in the control and in the presence of samples, respectively.
The obtained IDPPH percentages allowed us to calculate the IC50 values using Graph-Pad Prism 9 software (GraphPad Inc., San Diego, CA, USA). Trolox was employed as a positive control, while caffeine and theophylline were reference compounds.

[9] = test system: Escherichia coli (ATCC 25922); experiment: MIC/MBC broth dilution; type: cell-based
Experimental: (§4) The bacterial strains used for MIC and MBC value determinations expressed as µg/mL by the broth dilution method, according to CLSI guidelines, were the following:
(§5) -4 Gram-negative: Escherichia coli (ATCC® 25922^TM) and Klebsiella pneumoniae (ATCC® 13883^TM);
(§6) Increasing concentrations of the complexes (50, 70, 100, 150, and 200 µg/mL) were incubated with bacteria plated in 96-well microplates at 37 °C overnight as already reported, and then bacterial growth was checked at a wavelength of 600 nm using a Multiskan spectrophotometer (model Multiskan Ex Microplate; Thermo Scientific, Nyon, Switzerland). MIC or MBC values were obtained by comparing cell density with a positive control (bacterial cells grown in LB medium were added with only the vehicle, DMSO). The results were representative of three independent experiments performed in triplicate. Ampicillin, Gentamicin, and Cephalosporin (Sigma Aldrich A9393) were used as the control for strain sensitivity.

[10] = test system: Klebsiella pneumoniae (ATCC 13883); experiment: MIC/MBC broth dilution; type: cell-based
Experimental: as §4, §5, §6

[11] = test system: Enterococcus faecalis (ATCC 19433); experiment: MIC/MBC broth dilution; type: cell-based
Experimental: as §4
(§7) -3 Gram-positive: Enterococcus faecalis (ATCC® 19433^TM), Staphylococcus aureus (ATCC® 23235^TM), and Staphylococcus epidermidis (ATCC® 14990™).
as §6

[12] = test system: Staphylococcus aureus (ATCC 23235); experiment: MIC/MBC broth dilution; type: cell-based
Experimental: as §4, §7, §6

[13] = test system: Staphylococcus epidermidis (ATCC 14990); experiment: MIC/MBC broth dilution; type: cell-based
Experimental: as §4, §7, §6

[14] = test system: Pseudomonas aeruginosa (ATCC 15442); experiment: MIC/MBC broth dilution; type: cell-based
Experimental: as §4
as §6, with “The results were representative of three independent experiments performed in triplicate.” left out

[15] = test system: Salmonella typhimurium (ATCC 14028); experiment: MIC/MBC broth dilution; type: cell-based
Experimental: as §4
as §6, with “The results were representative of three independent experiments performed in triplicate.” left out

Structure (SMILES): CC(=O)[O][Ag-][c]1n(C)c2c(c(=O)n(C)c(=O)n2C)[n+]1CCO [AgL3OAc, 1,3,7-Trimethylxanthin-9-[(2-hydroxy)ethyl)-8-ylidene]Ag(I) Acetate]
- IC50 (MCF-7): > 100 µM
- IC50 (MDA-MB-231): > 100 µM
- IC50 [1]: > 100 µM
- Reduction in NO production [2]: about 14.35%
- iNOS expression level [3]: net reduction in iNOS expression
- COX-1 protein expression level [4]: no difference in protein expression level
- Reduction in COX-2 expression (fluorescence) [5]: about 60%
- NF-κB intracellular localization [6]: mostly cytoplasmic
- IC50 [7]: > 500 µM
- IC50 [8]: > 500 µM
- M.B.C. E. coli [9]: > 200 µg/mL
- M.B.C. K. pneumoniae [10]: > 200 µg/mL
- M.I.C. K. pneumoniae [10]: 150 µg/mL
- M.B.C. E. faecalis [11]: > 200 µg/mL
- M.I.C. E. faecalis [11]: 150 µg/mL
- M.B.C. S. aureus [12]: > 200 µg/mL
- M.I.C. S. aureus [12]: 125 µg/mL
- M.B.C. S. epidermidis [13]: > 125 µg/mL
- M.I.C. S. epidermidis [13]: 100 µg/mL
- M.B.C. P. aeruginosa [14]: > 200 µg/mL
- M.I.C. P. aeruginosa [14]: 150 µg/mL
- M.B.C. S. typhimurium [15]: > 200 µg/mL
- M.I.C. S. typhimurium [15]: 150 µg/mL

Structure (SMILES): Cn1c(=O)c2c(n(C)[c]([Au-][I])[n+]2CCO)n(C)c1=O [AuL3]
- IC50 (MCF-7): > 100 µM
- IC50 (MDA-MB-231): > 100 µM
- IC50 [1]: > 100 µM
- Reduction in NO production [2]: ~14.12%
- COX-1 protein expression level [4]: no difference in protein expression level
- Reduction in COX-2 expression (fluorescence) [5]: about 40%
- NF-κB intracellular localization [6]: mostly cytoplasmic
- IC50 [7]: > 500 µM
- IC50 [8]: > 500 µM
- M.I.C. E. coli [9]: >200 µg/mL
- M.I.C. K. pneumoniae [10]: >200 µg/mL
- M.I.C. E. faecalis [11]: >200 µg/mL
- M.I.C. S. aureus [12]: >200 µg/mL
- M.I.C. S. epidermidis [13]: >200 µg/mL
- M.I.C. P. aeruginosa [14]: >200 µg/mL
- M.I.C. S. typhimurium [15]: >200 µg/mL

Structure (SMILES): COc1ccc2c(c1)c(CC(=O)O)c(C)n2C(=O)c1ccc(Cl)cc1 [indomethacin, reference compound]
- Reduction in NO production [2]: about 11.23%
- iNOS expression level [3]: lower, reaching those obtained with the CTRL cells
- COX-1 protein expression level [4]: no difference in protein expression level
- Reduction in COX-2 expression (fluorescence) [5]: about 30%
- NF-κB intracellular localization [6]: higher cytoplasmic localization of NF-κB
